The values that follow are results of earlier work, collected in US20050196379A1, “Combination therapies with L-FMAU for the treatment of hepatitis B virus infection” (priority 2002, published 2005).

Series [1] concerns hepatitis B virus. As to conditions: in vivo.
The test system of series [2] is woodchuck hepatitis B virus (WHV). As to conditions: for drop of viral titers in serum: single drug, previous studies, same time frame (two weeks).

For “β-2-hydroxymethyl-5-(5-fluorocytosin-1-yl)-1,3-oxathiolane [β-L-FTC]”, in series [1], the “activity against hepatitis B virus in duck models” value is listed as “strong activity”. Moreover, the “drop of viral titers in serum” value in series [2] is “about 56 fold”. Also, in series [2] (woodchuck model of HBV), the “effect on viral replication and viral clearance” value is “inhibit viral replication but not induce viral clearance”.

Regarding `Cc1cn([C@H]2O[C@@H](CO)[C@H](O)[C@H]2F)c(=O)[nH]c1=O` [L-FMAU, 1-(2′-deoxy-2′-fluoro-β-L-arabinofuranosyl)-thymine], the “average decrease in CCC DNA” value in series [2] (L-FMAU alone, Peek et al.) is 10 fold. In addition, in series [2], the “drop of viral titers in serum” value was ~1,000 fold. In series [2] (woodchuck model), the “number of infected hepatocytes” value was “decrease rapidly the number of infected hepatocytes”.
